Test results: US20260217708A1, “FUSED BENZAZEPINE DERIVATIVES FOR USE IN THE TREATMENT OF CANCER AND EPILEPSY” (UCB BIOPHARMA SRL, priority 2023, published 2026)

How the values were obtained:
[1] = target: T1, system Xc^− (Homo sapiens, UniProt Q9UPY5); test: Cystine-induced glutamate release assay; type: cell-based; parameters: endogenous in cells; host or cells: H4 cells; details: H4 cells, sodium-free HEPES buffer, 50 μM L-Cystine, 2 hours, Amplex Red glutamate readout; read-out: pIC50 Cystine-induced glutamate release assay (converted)
T1 sequence (Q9UPY5 1-501): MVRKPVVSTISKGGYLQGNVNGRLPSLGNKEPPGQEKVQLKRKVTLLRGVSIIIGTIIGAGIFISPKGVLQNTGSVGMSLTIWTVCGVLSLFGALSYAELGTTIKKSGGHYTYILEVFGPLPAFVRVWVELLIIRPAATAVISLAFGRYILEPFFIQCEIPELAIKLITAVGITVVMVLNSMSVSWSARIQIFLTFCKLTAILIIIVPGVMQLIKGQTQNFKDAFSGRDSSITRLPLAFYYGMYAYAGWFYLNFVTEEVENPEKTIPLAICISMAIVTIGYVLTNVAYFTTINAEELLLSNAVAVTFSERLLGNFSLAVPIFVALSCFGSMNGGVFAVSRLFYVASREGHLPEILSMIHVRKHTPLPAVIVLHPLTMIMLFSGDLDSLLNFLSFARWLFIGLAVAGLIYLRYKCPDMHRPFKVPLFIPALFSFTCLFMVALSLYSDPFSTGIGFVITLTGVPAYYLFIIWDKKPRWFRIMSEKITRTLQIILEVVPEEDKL
T1 sequence (P08195 1-529 partner): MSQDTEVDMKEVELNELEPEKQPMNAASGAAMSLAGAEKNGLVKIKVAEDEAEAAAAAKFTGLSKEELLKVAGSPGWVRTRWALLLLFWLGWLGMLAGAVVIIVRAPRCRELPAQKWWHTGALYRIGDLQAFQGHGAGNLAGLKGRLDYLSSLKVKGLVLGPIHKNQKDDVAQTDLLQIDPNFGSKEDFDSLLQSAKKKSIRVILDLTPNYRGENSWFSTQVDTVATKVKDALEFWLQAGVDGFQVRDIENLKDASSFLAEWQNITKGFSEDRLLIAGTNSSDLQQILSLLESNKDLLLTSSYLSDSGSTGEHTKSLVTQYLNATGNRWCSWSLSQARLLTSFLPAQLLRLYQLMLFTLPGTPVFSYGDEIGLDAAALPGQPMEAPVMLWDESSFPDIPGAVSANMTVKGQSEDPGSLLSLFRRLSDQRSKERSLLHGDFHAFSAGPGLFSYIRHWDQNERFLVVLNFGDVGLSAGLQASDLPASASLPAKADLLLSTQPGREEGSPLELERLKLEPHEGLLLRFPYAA
How it was run: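 H4 cells in sodium-free HEPES buffer (pH 7.4), 2 days after plating; glutamate release induced with 50 μM L-cystine plus compound (1% DMSO), 2 h at 37 °C. Supernatant glutamate measured by Amplex Red fluorescence; IC50/pIC50 derived between 1% DMSO and 50 μM erastin controls.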

[2] = target: T1, system Xc^−; test: [^14C]L-Cystine uptake assay; type: cell-based; parameters: endogenous in cells; host or cells: H4 cells; details: H4 cells, sodium-free HEPES buffer, 0.5 μM L-[14C]Cystine and 4.5 μM L-Cystine, 1 hour at 37° C.; read-out: pIC50 [^14C] L-Cystine uptake assay (converted)
How it was run: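 H4 cells at 5×10^4 cells/well in sodium-free HEPES buffer were preincubated 15 min with compounds (1% DMSO). Uptake of 0.5 μM [14C]L-cystine plus 4.5 μM unlabelled L-cystine ran 1 hour at 37° C on scintillating plates. IC50 was set between 1% DMSO and 50 μM Erastin controls and expressed as pIC50.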

| IC50 [1] [nM] | IC50 [2] [nM] | Compound |
| --- | --- | --- |
| 39.8 to 100 | 39.8 to 100 | Cc1cc2c(c(F)n1)-c1nccnc1C(C)C(=O)N2CC(=O)Nc1ccc(Cl)c(F)c1 (single isomer, unassigned) [#408, N-(4-chloro-3-fluoro-phenyl)-2-[15-fluoro-8,13-dimethyl-9-oxo-3,6,10,14-tetrazatricyclo[9.4.0.0^2,7]pentadeca-1(15),2,4,6,11,13-hexaen-10-yl]acetamide] |
| 39.8 to 100 | 15.8 to 39.8 | COc1cc2c(c(F)n1)-c1ncccc1C(C)C(=O)N2CC(=O)Nc1ccc(Cl)c(F)c1 (single isomer, unassigned) [#413, N-(4-chloro-3-fluoro-phenyl)-2-[15-fluoro-13-methoxy-8-methyl-9-oxo-3,10,14-triazatricyclo[9.4.0.0^2,7]pentadeca-1(11),2,4,6,12,14-hexaen-10-yl]acetamide] |
| 39.8 to 100 | 15.8 to 39.8 | CC1C(=O)N(CC(=O)Nc2ccc(Cl)c(F)c2)c2cc(Cl)cc(F)c2-c2nccnc21 (single isomer, unassigned) [#414, 2-[9-chloro-11-fluoro-5-methyl-6-oxo-5H-pyrazino[2,3-d][1]benzazepin-7-yl]-N-(4-chloro-3-fluoro-phenyl)acetamide] |

The remaining lines, values behind:

| Compound | IC50 [1] [nM] | IC50 [2] [nM] |
| --- | --- | --- |
| Cc1cc2c(c(F)n1)-c1cc(F)ccc1C(C)C(=O)N2CC(=O)Nc1ccc(Cl)c(F)c1 (single isomer, unassigned) [#405, N-(4-chloro-3-fluoro-phenyl)-2-[1,10-difluoro-3,7-dimethyl-6-oxo-7H-pyrido[3,4-a][3]benzazepin-5-yl]acetamide] | 15.8 to 39.8 | < 15.8 |
| CC1C(=O)N(CC(=O)Nc2ccc(Cl)c(F)c2)c2cc(F)cc(F)c2-c2cccnc21 (single isomer, unassigned) [#406, N-(4-chloro-3-fluoro-phenyl)-2-[9,11-difluoro-5-methyl-6-oxo-5H-pyrido[2,3-d][1]benzazepin-7-yl]acetamide] | 15.8 to 39.8 | 15.8 to 39.8 |
| Cc1cc2c(cn1)-c1ncccc1C(C)C(=O)N2CC(=O)Nc1ccc(Cl)c(F)c1 (single isomer, unassigned) [#407, N-(4-chloro-3-fluoro-phenyl)-2-[8,13-dimethyl-9-oxo-3,10,14-triazatricyclo[9.4.0.0^2,7]pentadeca-1(15),2,4,6,11,13-hexaen-10-yl]acetamide] | 39.8 to 100 | 39.8 to 100 |
| CC1C(=O)N(CC(=O)Nc2ccc(Cl)c(F)c2)c2cccc(F)c2-c2cccnc21 (single isomer, unassigned) [#409, N-(4-chloro-3-fluoro-phenyl)-2-[11-fluoro-5-methyl-6-oxo-5H-pyrido[2,3-d][1]benzazepin-7-yl]acetamide] | 15.8 to 39.8 | 15.8 to 39.8 |
| COc1cc2c(cn1)-c1cc(F)cnc1C(C)C(=O)N2CC(=O)Nc1ccc(Cl)c(F)c1 (single isomer, unassigned) [#410, N-(4-chloro-3-fluoro-phenyl)-2-[14-fluoro-5-methoxy-10-methyl-9-oxo-4,8,12-triazatricyclo[9.4.0.0^2,7]pentadeca-1(15),2(7),3,5,11,13-hexaen-8-yl]acetamide] | 15.8 to 39.8 | 15.8 to 39.8 |
| COc1cc2c(c(Cl)n1)-c1cccnc1C(C)C(=O)N2CC(=O)Nc1ccc(C(F)F)cc1 (single isomer, unassigned) [#411, 2-(3-chloro-5-methoxy-10-methyl-9-oxo-4,8,12-triazatricyclo[9.4.0.0^2,7]pentadeca-1(11),2(7),3,5,12,14-hexaen-8-yl]-N-[4-(difluoromethyl)phenyl)acetamide] | < 15.8 | < 15.8 |
| COc1cnc2c(c1)-c1cnc(C)cc1N(CC(=O)Nc1ccc(Cl)c(F)c1)C(=O)C2C (single isomer, unassigned) [#415, N-(4-chloro-3-fluoro-phenyl)-2-[14-methoxy-5,10-dimethyl-9-oxo-4,8,12-triazatricyclo[9.4.0.0^2,7]pentadeca-1(15),2,4,6,11,13-hexaen-8-yl]acetamide] | < 15.8 | < 15.8 |
